Data as given in PMC9967275, “Screening the Pathogen Box to Discover and Characterize New Cruzain and TbrCatL Inhibitors” (Pathogens, 2023).

Assays:
TbrCatL = molecular target: T1, TbrCatL (Trypanosoma brucei rhodesiense, UniProt Q95PM0); assay: TbrCatL enzymatic inhibition assay (cleavage of fluorogenic substrate Z-FR-AMC); type: biochemical; conditions: for TbrCatL 0’ Inhibition / TbrCatL 10’ Inhibition: sheet "Screening results"
T1 construct: Conor Caffrey (University of California San Diego)
Procedure: (§1) Allison Doak and Prof. Brian Shoichet (University of California San Francisco, San Francisco, CA, USA) and Prof. Conor Caffrey (University of California San Diego, San Diego, CA, USA) generously provided recombinant cruzain and TbrCatL, respectively. In vitro activity of proteases cruzain and TbrCatL was assayed as previously described. Briefly, enzyme activity was measured by monitoring the cleavage of the fluorogenic substrate […] (Z-FR-AMC) at 25 °C. Fluorescence was monitored at 340/440 nm (excitation/emission) over 5–7 min in a Synergy2 Biotek plate reader. […] DMSO and 1 μM E-64 were employed as negative and positive controls, respectively, in all assays. Two conditions were employed for both enzymes: 10′ pre-incubation of the enzyme in the presence of the compound (10′ inc) and no pre-incubation (0′). Reported values correspond to the mean and standard error of the mean (SEM) and all analyses were performed using GraphPad Prism 6.0.
(§2) For the initial screening, compounds were assayed at 5 μM. […] IC50 curves were obtained from a non-linear fit of at least seven distinct compound concentrations, in triplicate. Reported IC50 values are the mean and SEM of two independent measurements.

cruzain = cruzain (Trypanosoma cruzi, UniProt P25779); assay: biochemical; conditions: for Cruzain 0’ Inhibition / Cruzain 10’ Inhibition: sheet "Screening results"
Procedure: as §1, §2

[1] = 0’ (no pre-incubation), sheet Screening results
[2] = 10’ (pre-incubation), sheet Screening results
[3] = 0’ (pre-incubation time), Pathogen Box screening results
[4] = 10’ (pre-incubation time), Pathogen Box screening results
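Also: at 5 µM compound concentration.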

T1 sequence (Q95PM0 entry or part of it): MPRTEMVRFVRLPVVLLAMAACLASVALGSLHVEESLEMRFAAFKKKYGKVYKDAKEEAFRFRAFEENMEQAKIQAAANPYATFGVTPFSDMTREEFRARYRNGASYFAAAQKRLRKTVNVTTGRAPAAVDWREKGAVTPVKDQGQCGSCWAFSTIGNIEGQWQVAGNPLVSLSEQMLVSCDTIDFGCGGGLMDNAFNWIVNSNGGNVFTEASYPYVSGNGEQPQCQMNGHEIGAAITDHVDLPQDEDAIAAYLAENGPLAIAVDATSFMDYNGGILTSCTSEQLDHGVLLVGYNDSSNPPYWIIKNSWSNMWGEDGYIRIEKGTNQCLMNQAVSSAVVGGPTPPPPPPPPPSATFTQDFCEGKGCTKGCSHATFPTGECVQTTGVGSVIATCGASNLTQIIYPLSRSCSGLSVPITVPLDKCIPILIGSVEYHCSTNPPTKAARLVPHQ
cruzain, sequence (P25779 123-337 limits assumed): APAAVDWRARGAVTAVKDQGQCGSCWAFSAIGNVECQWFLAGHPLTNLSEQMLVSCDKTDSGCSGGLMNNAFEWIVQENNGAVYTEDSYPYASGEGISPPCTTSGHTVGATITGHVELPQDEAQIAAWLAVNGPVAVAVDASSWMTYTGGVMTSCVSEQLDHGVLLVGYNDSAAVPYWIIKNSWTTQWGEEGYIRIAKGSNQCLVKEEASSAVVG

Row | Structure (SMILES) | TbrCatL 0’ Inhibition (TbrCatL; 0’ (pre-incubation time)) [%] | TbrCatL 10’ Inhibition (TbrCatL; 10’ (pre-incubation time)) [%] | Cruzain 0’ Inhibition (cruzain; 0’ (pre-incubation time)) [%] | Cruzain 10’ Inhibition (cruzain; 10’ (pre-incubation time)) [%] | TbrCatL Inhibition 0’ (TbrCatL; [1]) [%] | TbrCatL Inhibition 10’ (TbrCatL; [2]) [%] | Cruzain Inhibition 0’ (cruzain; [1]) [%] | Cruzain Inhibition 10’ (cruzain; [2]) [%] | other results
1 | COc1ccc(C2(C(=O)Nc3ccc(Br)cc3)CCCC2)cc1 [MMV200748] | -2.7 | -3 | 3.8 | 4 |  |  |  |  | 
2 | CCCNC(=O)N1CCC2(CC1)CC(=O)c1cc(C)ccc1O2 [MMV085230] | 8.5 | 13 | 15 | 18 |  |  |  |  | 
3 | N#Cc1nc(-c2ccccc2)oc1S(=O)(=O)c1ccc(Cl)cc1 [MMV676412] |  |  |  |  | 5.5 | -69 | 6 | -27 | 
4 | CCS(=O)(=O)N(Cc1ccco1)Cc1cc2ccc(C)cc2[nH]c1=O [MMV676398] | 8 | 9 | 6.5 | 28 |  |  |  |  | 
5 | O=C(Nc1nnc(-c2ccc(Cl)s2)o1)c1ccc(Cl)s1 [MMV676501] |  |  |  |  | -3.6 | -11 | -8 | -16 | 
6 | CCNC(=O)C(C)Nc1nc(-c2cccnc2)nc2sc(C)c(C)c12 (centres unmarked) [MMV1037162] | 6 | -0.5 | -0.8 | 1.7 |  |  |  |  | 
7 | O=C(C1CCCCC1)N1CC(=O)N2CCc3ccccc3[C@@H]2C1 [MMV002529] |  |  |  |  | 5 | 5.7 | 22 | 18 | 
8 | Cc1ccc(S(=O)(=O)N2CCN(C(=O)c3cc(-c4ccccc4)n[nH]3)CC2)cc1 [MMV019742] |  |  |  |  | 3.5 | -2.5 | -5 | -3 | 
9 | O=C(Nc1cnc2ccccc2c1)c1cccc(-n2cnnn2)c1 [MMV084864] |  |  |  |  |  |  |  |  | TbrCatL Inhibition 0’ (TbrCatL; [3]): -11%; TbrCatL Inhibition 10’ (TbrCatL; [4]): 5%; Cruzain Inhibition 0’ (cruzain; [3]): 0%; Cruzain Inhibition 10’ (cruzain; [4]): 11%
10 | CCCn1c(CNc2ccccc2O)nc2ccccc21 [MMV676445] |  |  |  |  | 6 | 3.3 | 1.2 | 3.6 | 
11 | COc1cccc(NC(=O)c2c(NC(=O)c3cccnc3)sc3c2CCC3)c1 [MMV228911] |  |  |  |  |  |  |  |  | TbrCatL Inhibition 0’ (TbrCatL; [3]): -8.5%; TbrCatL Inhibition 10’ (TbrCatL; [4]): 4.5%; Cruzain Inhibition 0’ (cruzain; [3]): -1.4%; Cruzain Inhibition 10’ (cruzain; [4]): 4.7%
12 | COc1cccc(OC)c1C(=O)Nc1ccc(Cl)c(-c2nc3ccccc3s2)c1 [MMV676472] | 4 | -2 | 8 | 14 |  |  |  |  | 
13 | O=C1[C@@H](Oc2ccccc2)[C@@H](c2ccc(Cl)cc2)N1CCn1cnc2c(NCc3ccccc3)ncnc21 [MMV688352] | 5 | 12 | 0 | 23 |  |  |  |  | 
14 | O=C(c1ccc(NCCO)cc1)C1C[C@H]1c1ccc(Cl)cc1 (some centres unmarked) [MMV676877] | 1.1 | 9 | 9 | 5.5 |  |  |  |  | 
15 | CN1CCN(c2cc(-c3ccc(F)cc3)nc(-c3ccncc3)n2)CC1 [MMV688888] |  |  |  |  | 19 | 9 | 18 | 14 | 
16 | Cc1ccc(C(=O)Nc2ccc(S(=O)(=O)O)c3cc(S(=O)(=O)O)cc(S(=O)(=O)O)c23)cc1NC(=O)c1cccc(NC(=O)Nc2cccc(C(=O)Nc3cc(C(=O)Nc4ccc(S(=O)(=O)O)c5cc(S(=O)(=O)O)cc(S(=O)(=O)O)c45)ccc3C)c2)c1 [MMV637953] |  |  |  |  | -4.4 | -0.2 | 32 | 21 | 
17 | CC(C)(C)c1cc(C(=O)Nc2cccnc2)cc(C(=O)Nc2cccnc2)c1 [MMV020982] |  |  |  |  | -6 | -7 | 1.3 | -0.5 | 
18 | COc1cccn2c(C(=O)N3CCCCC3)c(C(F)(F)F)nc12 [MMV1110498] |  |  |  |  | 13 | 6.4 | 8 | 9 | 
19 | CCOC(=O)c1c(NC(=O)c2c(F)c(F)c(F)c(F)c2F)sc(C(N)=O)c1C [MMV153413] | 1.1 | 39 | 0.7 | 23 |  |  |  |  | 
20 | CN1CCCN(C(c2ccccc2)c2ccc(Cl)cc2)CC1 (centres unmarked) [MMV004168] | -5.4 | 1.8 | 3.6 | 6.6 |  |  |  |  | 
21 | COc1ccc(-c2onc(C(F)(F)F)c2-c2ccc(Cl)cc2)c(O)c1 [MMV688766] | 0 | -5 | 1 | -2.5 |  |  |  |  | 
22 | O=C(C1CCN(c2nnnn2-c2ccccc2)CC1)N1CCc2ccccc2C1 [MMV009135] | -1.2 | 6 | 0.1 | 0.1 |  |  |  |  | 
23 | COc1cccc(-n2nnnc2S(C)(=O)=O)c1 [MMV272144] |  |  |  |  |  |  |  |  | TbrCatL Inhibition 0’ (TbrCatL; [3]): -11%; TbrCatL Inhibition 10’ (TbrCatL; [4]): 9%; Cruzain Inhibition 0’ (cruzain; [3]): -1.3%; Cruzain Inhibition 10’ (cruzain; [4]): 11%
24 | O=C(NCc1ccco1)N1CCN(Cc2ccc(Cl)s2)CC1 [MMV688555] |  |  |  |  | 6 | 0.9 | -0.7 | 0.5 | 
25 | Cc1cc(C(=O)Nc2ccc(-c3ccccc3)cc2)no1 [MMV020152] |  |  |  |  | -2 | 1.1 | 3.7 | -0.4 | 
26 | CO/N=C(/C(=O)OC)c1ccccc1CO/N=C(/C)c1cccc(C(F)(F)F)c1 [MMV688754] |  |  |  |  |  |  |  |  | TbrCatL Inhibition 0’ (TbrCatL; [3]): -4%; TbrCatL Inhibition 10’ (TbrCatL; [4]): -1.2%; Cruzain Inhibition 0’ (cruzain; [3]): 0.9%; Cruzain Inhibition 10’ (cruzain; [4]): 3.5%
